Values belong to the compound of their own block, whether it stands above or below them.
What was measured:
MRP2 = target: T1, MRP2 (Homo sapiens, UniProt Q92887); assay: Bidirectional transport of CDCFDA in MDCKII-MRP2 cells; assay type: cell-based
T1 construct: host or cells: MDCK II (canine kidney) cells transfected with MRP2
Procedure: Human colon epithelial cell line (Caco-2) was purchased from American Type Culture Collection (Manassas, VA, United States) and frozen at -80°C. Wild type MDCK II, MDR1-MDCK II, BCRP-MDCK II, and MRP2-MDCK II cells were kindly supplied by the Netherlands Cancer Institute (Amsterdam, Netherlands). Transport study was carried out with Caco-2 cells, and MDCK II cells were transfected using a previously established method with slight modifications ([Yuan et al., 2017]). The Caco-2 cells were cultured at 37°C/5% CO2 in Dulbecco’s modified Eagle’s medium (DMEM) supplemented with 10% fetal bovine serum, 1% nonessential amino acids, and 1% penicillin-streptomycin. […]
Bidirectional transport assays for Caco-2 and MDCK II cells were performed by adding silybin (10 μM) in assay buffer into either the apical (AP; A-to-B) or basolateral (BL; B-to-A) chamber, and each 100 μl sample was collected at 30, 60, 90, 120, and 180 min. […] The fluorescence intensity of the sample collected from the AP or BL side was immediately detected in a 96-well black plate by the Microplate UV/VIS spectrophotometer (TECAN Infinite M200 PRO, Männedorf, Switzerland). […]
(§1) where dQ/dt (mM/s) represents the rate of permeation of the drug across the cells, C0 (mM) refers to the concentration in the donor compartment at time zero calculated from dosing solution, and A (cm^2) refers to the area of the cell monolayer. […]

[1] = tested on: sandwich-cultured rat hepatocytes; assay: Biliary excretion in sandwich-cultured rat hepatocytes (SCH); assay type: in vitro ADME
Procedure: Sandwich-cultured rat hepatocytes (SCHs) model was established based on a previously described method with minor modifications ([Swift et al., 2010]). In brief, primary rat hepatocytes were prepared from male Sprague Dawley (SD) rats (220–270 g) using collagenase perfusion as described previously ([Liu et al., 1999]) and then were plated on 6-well plates at a density of 7.4 × 10^5 cells/2 ml/well. Approximately 24 h later, hepatocytes were overlaid with 2 ml of BD Matrigel basement membrane matrix in DMEM (0.25 mg/ml) containing 1% (v/v) insulin/transferrin/selenium culture supplement, […], 2 mM L-glutamine, and 1% penicillin-streptomycin. Hepatocytes were cultured for 4 days with daily medium replacements until the canalicular network was extensively formatted between the cells before the experiment. Evaluation of biliary excretion in SCHs was carried out according to a previously described method ([Liu et al., 1999]). […] Samples were quantified by LC-MS/MS analysis, and the transport function was normalized to the protein content of the hepatocytes. […] Later, the residues were reconstituted with 60 μl of 30% methanol in water containing 1% ascorbic acid, and an aliquot of 10 μl of final solution after centrifugation was analyzed by LC-MS/MS. […] The quantitative linear range for silybin A and B was 5 to 12500 ng/ml.

MDR1 = target: T2, MDR1 (Homo sapiens, UniProt P08183); assay: Bidirectional transport of Rho123 in MDCKII-MDR1 cells; assay type: cell-based; conditions: dog, MDCK-MDR1, absence of inhibitor
T2 construct: host or cells: MDCK II (canine kidney) cells transfected with MDR1
T2 sequence (P08183 whole entry): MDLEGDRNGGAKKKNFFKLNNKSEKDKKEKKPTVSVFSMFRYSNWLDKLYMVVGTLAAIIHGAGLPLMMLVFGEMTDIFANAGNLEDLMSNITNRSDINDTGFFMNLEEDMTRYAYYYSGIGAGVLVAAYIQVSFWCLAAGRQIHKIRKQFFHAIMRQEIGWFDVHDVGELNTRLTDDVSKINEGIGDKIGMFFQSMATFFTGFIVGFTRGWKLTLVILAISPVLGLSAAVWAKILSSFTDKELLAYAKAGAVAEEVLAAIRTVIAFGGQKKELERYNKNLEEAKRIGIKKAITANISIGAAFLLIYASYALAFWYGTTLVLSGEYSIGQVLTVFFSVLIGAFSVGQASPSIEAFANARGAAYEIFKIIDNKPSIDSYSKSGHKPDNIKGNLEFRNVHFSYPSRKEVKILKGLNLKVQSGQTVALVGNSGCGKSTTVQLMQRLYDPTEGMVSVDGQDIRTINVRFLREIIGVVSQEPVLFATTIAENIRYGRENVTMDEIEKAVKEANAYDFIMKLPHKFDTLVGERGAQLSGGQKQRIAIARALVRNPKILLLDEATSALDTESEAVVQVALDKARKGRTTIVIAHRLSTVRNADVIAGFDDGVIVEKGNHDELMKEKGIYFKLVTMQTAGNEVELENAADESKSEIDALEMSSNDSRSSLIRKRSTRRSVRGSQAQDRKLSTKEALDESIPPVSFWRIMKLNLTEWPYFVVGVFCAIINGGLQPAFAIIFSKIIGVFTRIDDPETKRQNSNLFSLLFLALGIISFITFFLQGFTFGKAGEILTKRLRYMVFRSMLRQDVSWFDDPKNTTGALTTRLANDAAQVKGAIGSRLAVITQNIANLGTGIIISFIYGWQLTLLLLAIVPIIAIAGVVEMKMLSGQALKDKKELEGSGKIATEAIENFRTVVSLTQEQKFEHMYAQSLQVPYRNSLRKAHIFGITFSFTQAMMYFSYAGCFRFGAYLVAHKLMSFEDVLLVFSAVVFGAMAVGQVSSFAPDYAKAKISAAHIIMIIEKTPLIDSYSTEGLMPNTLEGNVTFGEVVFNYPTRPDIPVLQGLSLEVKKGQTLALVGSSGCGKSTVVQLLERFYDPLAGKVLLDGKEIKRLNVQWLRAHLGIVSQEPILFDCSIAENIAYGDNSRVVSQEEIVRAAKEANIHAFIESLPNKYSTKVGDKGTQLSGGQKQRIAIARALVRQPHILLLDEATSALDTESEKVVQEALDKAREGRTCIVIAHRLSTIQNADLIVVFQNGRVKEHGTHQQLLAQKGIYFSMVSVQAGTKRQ
Procedure: (§2) Human colon epithelial cell line (Caco-2) was purchased from American Type Culture Collection (Manassas, VA, United States) and frozen at -80°C. Wild type MDCK II, MDR1-MDCK II, BCRP-MDCK II, and MRP2-MDCK II cells were kindly supplied by the Netherlands Cancer Institute (Amsterdam, Netherlands). […] The Caco-2 cells were cultured at 37°C/5% CO2 in Dulbecco’s modified Eagle’s medium (DMEM) supplemented with 10% fetal bovine serum, 1% nonessential amino acids, and 1% penicillin-streptomycin. The Caco-2 cells were seeded onto polyester filter membranes in a 12-well Transwell® plate (Corning Costar Co., NY, United States) with 0.6 × 10^5 cells/cm^2. […]
(§3) For inhibition studies, Caco-2 or MDCK II cell monolayers in both apical and basolateral chambers were preincubated with the inhibitor for 30 min. The fluorescence intensity of the sample collected from the AP or BL side was immediately detected in a 96-well black plate by the Microplate UV/VIS spectrophotometer (TECAN Infinite M200 PRO, Männedorf, Switzerland). […]
as §1, with “monolayer. Papp (B-A) is the Papp value measured in the B to A direction, and Papp (A-B) is the Papp value measured in the A to B direction.” for “monolayer.”

[2] = ref Lai et al., 2003, cited from earlier work
Caco-2 cells = assay: Bidirectional transport of silybin across Caco-2 cell monolayers; assay type: in vitro ADME, Human; conditions: Caco-2 monolayers, silybin 10 μM
Procedure: Human colon epithelial cell line (Caco-2) was purchased from American Type Culture Collection (Manassas, VA, United States) and frozen at -80°C. Wild type MDCK II, MDR1-MDCK II, BCRP-MDCK II, and MRP2-MDCK II cells were kindly supplied by the Netherlands Cancer Institute (Amsterdam, Netherlands). Transport study was carried out with Caco-2 cells, and MDCK II cells were transfected using a previously established method with slight modifications ([Yuan et al., 2017]). The Caco-2 cells were cultured at 37°C/5% CO2 in Dulbecco's modified Eagle's medium (DMEM) supplemented with 10% fetal bovine serum, 1% nonessential amino acids, and 1% penicillin-streptomycin. The Caco-2 cells were seeded onto polyester filter membranes in a 12-well Transwell® plate (Corning Costar Co., NY, United States) with 0.6 × 10^5 cells/cm^2. The monolayer cells were used for transport assays between 21 and 23 days. The MDCKII cells were seeded on transwell plates with a density of 2.0 × 10^5 cells/cm^2 and grown for 4-5 days to form a confluent monolayer. Bidirectional transport assays for Caco-2 and MDCK II cells were performed by adding silybin (10 μM) in assay buffer into either the apical (AP; A-to-B) or basolateral (BL; […] For inhibition studies, Caco-2 or MDCK II cell monolayers in both apical and basolateral chambers were preincubated with the inhibitor for 30 min. The fluorescence intensity of the sample collected from the AP or BL side was immediately detected in a 96-well black plate by the Microplate UV/VIS spectrophotometer (TECAN Infinite […], Männedorf, Switzerland). For liquid chromatography tandem-mass spectrometry (LC-MS/MS) analysis, the sample (100 μl) was mixed with methanol (50 μl) containing internal standard (25 ng/ml) and was stored at -80°C. The formula for calculating apparent permeability coefficient (Papp) values is as follows: (1) […] where dQ/dt (mM/s) represents the rate of permeation of the drug across the cells, C0 (mM) refers to the concentration in the donor compartment at time zero calculated from dosing solution, and A (cm^2) refers to the area of the cell monolayer. Papp (B-A) is the Papp value measured in the B to A direction, and Papp (A-B) is the Papp value measured in the A to B direction. The efflux ratio is given as ER = Papp (B to A)/Papp (A to B).

[3] = tested on: CCl4-induced liver injury model; assay: CCl4-induced acute liver injury in rats; assay type: in vivo, SD rats; set-up: Nerosis (histologic score, liver H&E) / Haemorrhage (histologic score, liver H&E) / Inflammation (histologic score, liver H&E) / Steatosis (histologic score, liver H&E): scale not given here
Procedure: Male SD rats were randomly divided into seven groups: […] (2) Group II, given blank vehicle p.o. for 7 days; (3) Group III, treatment with silybin (100 mg/kg bodyweight, p.o.) for 7 days; […] After 24 h of CCl4 treatment, all rats were sacrificed under ether anesthesia. Blood samples were collected from the abdominal aorta for biochemical estimations. The liver was immediately removed and weighed with a large portion of the liver frozen in liquid nitrogen. The pathological liver changes were examined by hematoxylin and eosin (H&E) staining, which was performed by a pathologist who was blinded to this study. The serum levels of ALT, AST, AKP, and SOD as well as the cytokines TNF- α, IL-6, and IL-1β were detected by the assay kit, according to the manufacturer’s instructions.

BCRP = target: T3, BCRP (Homo sapiens, UniProt Q9UNQ0); assay: Bidirectional transport of pheophorbide A in MDCKII-BCRP cells; assay type: cell-based; conditions: dog, absence of inhibitor
T3 construct: host or cells: MDCK II (canine kidney) cells transfected with BCRP
T3 sequence (Q9UNQ0 1-655): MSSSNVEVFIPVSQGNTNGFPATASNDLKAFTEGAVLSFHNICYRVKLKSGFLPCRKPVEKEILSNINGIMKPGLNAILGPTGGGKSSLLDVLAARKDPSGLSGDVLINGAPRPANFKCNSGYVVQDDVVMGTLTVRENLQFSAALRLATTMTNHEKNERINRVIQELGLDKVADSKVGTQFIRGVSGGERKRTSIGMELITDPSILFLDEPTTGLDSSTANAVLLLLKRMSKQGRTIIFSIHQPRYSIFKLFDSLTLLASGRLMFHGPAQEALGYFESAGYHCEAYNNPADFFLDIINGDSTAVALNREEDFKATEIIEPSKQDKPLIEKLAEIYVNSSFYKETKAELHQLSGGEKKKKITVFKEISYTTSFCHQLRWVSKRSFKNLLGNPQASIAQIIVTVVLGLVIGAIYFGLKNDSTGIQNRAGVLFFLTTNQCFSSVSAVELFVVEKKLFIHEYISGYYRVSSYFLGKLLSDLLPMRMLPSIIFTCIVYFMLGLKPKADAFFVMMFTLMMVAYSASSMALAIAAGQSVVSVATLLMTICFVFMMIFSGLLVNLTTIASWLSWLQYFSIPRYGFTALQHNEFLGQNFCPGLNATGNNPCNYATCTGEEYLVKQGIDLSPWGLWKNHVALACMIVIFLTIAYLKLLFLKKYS
Procedure: as §2, §3
as §1, with “monolayer. Papp (B-A) is the Papp value measured in the B to A direction, and Papp (A-B) is the Papp value measured in the A to B direction.” for “monolayer.”

[4] = 100 mg/kg p.o. 7 days, single agent, CCl4 on day 7

T1 sequence (Q92887 whole entry): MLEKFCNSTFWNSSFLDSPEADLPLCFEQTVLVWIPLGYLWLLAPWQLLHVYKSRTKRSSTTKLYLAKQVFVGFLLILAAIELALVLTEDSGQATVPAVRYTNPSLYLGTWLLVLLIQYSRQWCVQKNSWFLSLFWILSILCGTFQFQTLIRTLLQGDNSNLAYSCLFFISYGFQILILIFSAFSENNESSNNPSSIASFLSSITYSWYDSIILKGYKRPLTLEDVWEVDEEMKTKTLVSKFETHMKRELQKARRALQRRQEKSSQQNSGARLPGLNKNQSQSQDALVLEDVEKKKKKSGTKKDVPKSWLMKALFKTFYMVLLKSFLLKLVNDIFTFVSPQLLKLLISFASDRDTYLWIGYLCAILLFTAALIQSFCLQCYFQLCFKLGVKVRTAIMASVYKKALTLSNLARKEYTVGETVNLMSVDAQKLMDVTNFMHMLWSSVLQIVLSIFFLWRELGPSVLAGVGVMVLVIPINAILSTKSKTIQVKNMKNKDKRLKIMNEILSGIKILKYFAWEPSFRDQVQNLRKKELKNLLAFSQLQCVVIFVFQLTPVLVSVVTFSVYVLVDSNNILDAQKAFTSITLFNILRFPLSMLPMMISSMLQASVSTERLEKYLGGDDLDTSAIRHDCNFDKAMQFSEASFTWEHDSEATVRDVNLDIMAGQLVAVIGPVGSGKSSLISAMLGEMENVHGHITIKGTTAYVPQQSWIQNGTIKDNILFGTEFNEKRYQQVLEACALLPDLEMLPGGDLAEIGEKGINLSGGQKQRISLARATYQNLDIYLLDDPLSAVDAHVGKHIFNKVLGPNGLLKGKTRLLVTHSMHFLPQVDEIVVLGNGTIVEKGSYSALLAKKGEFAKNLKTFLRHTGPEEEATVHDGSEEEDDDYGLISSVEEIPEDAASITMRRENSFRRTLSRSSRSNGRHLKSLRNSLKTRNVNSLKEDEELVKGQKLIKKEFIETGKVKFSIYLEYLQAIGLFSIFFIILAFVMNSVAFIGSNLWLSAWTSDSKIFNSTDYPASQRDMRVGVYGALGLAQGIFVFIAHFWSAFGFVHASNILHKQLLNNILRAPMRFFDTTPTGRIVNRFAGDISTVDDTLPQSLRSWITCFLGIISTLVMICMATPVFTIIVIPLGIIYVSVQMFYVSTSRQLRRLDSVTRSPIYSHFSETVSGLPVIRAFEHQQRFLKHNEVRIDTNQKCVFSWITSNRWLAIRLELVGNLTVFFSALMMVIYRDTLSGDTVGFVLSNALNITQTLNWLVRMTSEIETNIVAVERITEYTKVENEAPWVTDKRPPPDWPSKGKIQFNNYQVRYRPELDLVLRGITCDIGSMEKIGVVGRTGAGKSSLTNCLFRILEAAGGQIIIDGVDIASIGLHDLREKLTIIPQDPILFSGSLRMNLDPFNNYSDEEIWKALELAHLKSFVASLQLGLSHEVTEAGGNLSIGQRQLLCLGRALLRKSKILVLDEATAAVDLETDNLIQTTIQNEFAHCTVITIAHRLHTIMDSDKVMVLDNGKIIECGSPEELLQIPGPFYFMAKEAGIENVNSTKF

efflux ratio of CDCFDA (MRP2): 3.82 ± 0.51
Compound: 5(6)-Carboxy-2′,7′-dichlorofluorescein diacetate [CDCFDA]

efflux ratio at 180 min (MDR1): 3.68 ± 0.44
Compound: COC(=O)c1ccccc1-c1c2ccc(=N)cc-2oc2cc(N)ccc12 [Rho123, Rhodamine 123]

efflux ratio at 180 min (BCRP): 2.82 ± 0.13
Compound: C=Cc1c(C)c2cc3nc(c4c5[nH]c(cc6nc(cc1[nH]2)C(C)=C6CC)c(C)c5C(=O)[C@@H]4C(=O)OC)[C@@H](CCC(=O)O)[C@@H]3C [pheophorbide A]

Second part, the compound before the results:

Compound: CN(C)C(=O)CCSC(SCCC(=O)O)c1cccc(/C=C/c2ccc3ccc(Cl)cc3n2)c1 (centres unmarked) [MK571]
effect on biliary excretion of silybin and its conjugates ([1]; MK571 50 μM, positive control): significantly inhibited

Compound: O=c1cc(-c2ccccc2)oc2cc(O)c(O)c(O)c12 [baicalein, 5,6,7-trihydroxyflavone]
reduction of the biliary excretion of silybin conjugates ([1]; baicalein 25 μM): ~90%
glucuronides/sulfates of baicalein in the plasma or cell ([2]; after oral administration or dosing in the Caco-2 cell model, Li et al., 2012): 75.7%
absolute absorption ([2]; passive diffusion): 40%
lowest effective dosage inhibiting efflux transport of silybin (Caco-2 cells): 0.5 µM
Haemorrhage (histologic score, liver H&E) [3, 4]: 2.2±0.4
Inflammation (histologic score, liver H&E) [3, 4]: 2.2±0.8
Nerosis (histologic score, liver H&E) [3, 4]: 3.0±0.6
Steatosis (histologic score, liver H&E) [3, 4]: 2.3±0.8
protection of liver injury by baicalein itself ([3]; CCl4-induced acute liver injury model): failed to show significant benefits

Compound: O=C(O)[C@H]1O[C@@H](Oc2cc3oc(-c4ccccc4)cc(=O)c3c(O)c2O)[C@H](O)[C@@H](O)[C@@H]1O [baicalin]
relative absorption compared with baicalein ([2]; after oral administration): 65%
